Starred links: 1 amine or outer side, 2 acyl side, 3 side chain; linkers in the order of their positions; H or OH if unused. Non-standard residues stand in square brackets, D forms with d. Residues, ends and D or L forms follow the SMILES beside them. Phe(4-F)ψ(2,4-Thz) = O=C(c1csc([C@H](Cc2ccc(F)cc2)N[*:1])n1)[*:2]; Cha = N[C@@H](CC1CCCCC1)C(=O)O
What was measured:
[1] = molecular target: T1, gel-filtered platelets (SFLLRN-NH2 (TRAP)-stimulated aggregation) (Homo sapiens, UniProt P25116); assay: In vitro inhibition of SFLLRN-NH2 (TRAP)-induced gel-filtered platelet aggregation; format: cell-based; conditions: agonist SFLLRN-NH2 (TRAP)
T1 sequence (P25116 42-425): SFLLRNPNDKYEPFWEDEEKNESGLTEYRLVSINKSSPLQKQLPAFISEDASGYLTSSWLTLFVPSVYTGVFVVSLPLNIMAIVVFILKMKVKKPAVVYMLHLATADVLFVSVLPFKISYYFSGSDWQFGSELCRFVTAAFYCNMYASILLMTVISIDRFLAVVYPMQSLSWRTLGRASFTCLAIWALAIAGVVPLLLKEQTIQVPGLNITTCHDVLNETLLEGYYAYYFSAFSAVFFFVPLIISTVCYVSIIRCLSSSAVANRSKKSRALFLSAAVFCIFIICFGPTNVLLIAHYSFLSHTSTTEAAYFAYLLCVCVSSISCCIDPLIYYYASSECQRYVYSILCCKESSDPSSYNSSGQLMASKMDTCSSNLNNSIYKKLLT
Method: The percentage of platelet aggregation is calculated as an increase in light transmission of compound-treated platelet concentrate vs. control-treated platelet concentrate. Human blood is obtained from drug free, normal donors in tubes containing 0.13 M sodium citrate. Platelet rich plasma (PRP) is collected by centrifugation of whole blood at 200×g for 10 min at 25° C. The PRP (5 mL) is gel filtered through Sepharose 2B (bed volume 50 mL), and the platelet count is adjusted to 2×10^7 platelets per sample. The following constituents are added to a siliconized cuvette: concentrated platelet filtrate and Tyrode's buffer (0.14 M NaCl, 0.0027 M KCl, 0.012 M NaHCO3, 0.76 mM Na2 HPO4, 0.0055 M glucose, 2 mg/mL BSA and 5.0 mM HEPES@pH 7.4) in an amount equal to 350 μl, 50 μl of 20 mM calcium and 50 μl of the test compound. Aggregation is monitored in a BIODATA aggregometer for the 3 min following the addition of agonist (thrombin 50 μl of 1 unit/mL).
(§1) The table contains IC50 values (μM) of the compounds in a thrombin receptor binding assay, and IC50 values (μM) against platelet aggregation stimulated by two agonists, thrombin or SFLLRN-NH2 [SEQ. ID. NO:1] (TRAP).

thrombin receptor = molecular target: T2, thrombin receptor (Homo sapiens, UniProt P25116); assay: In vitro thrombin receptor binding assay (displacement of tritiated 721-40 from CHRF membranes); conditions: tritiated 721-40 (Ser-pFPhe-Har-Leu-Har-Lys-Tyr-NH2) radioligand, read-out: Thr Receptor Binding IC50
T2 construct: CHRF membranes (Jones, Biochim. Biophys. Acta 1992, 1136, 272) are thawed from -70° C; endogenous in cells; host or cells: CHRF cell membranes
T2 sequence (P25116 22-425): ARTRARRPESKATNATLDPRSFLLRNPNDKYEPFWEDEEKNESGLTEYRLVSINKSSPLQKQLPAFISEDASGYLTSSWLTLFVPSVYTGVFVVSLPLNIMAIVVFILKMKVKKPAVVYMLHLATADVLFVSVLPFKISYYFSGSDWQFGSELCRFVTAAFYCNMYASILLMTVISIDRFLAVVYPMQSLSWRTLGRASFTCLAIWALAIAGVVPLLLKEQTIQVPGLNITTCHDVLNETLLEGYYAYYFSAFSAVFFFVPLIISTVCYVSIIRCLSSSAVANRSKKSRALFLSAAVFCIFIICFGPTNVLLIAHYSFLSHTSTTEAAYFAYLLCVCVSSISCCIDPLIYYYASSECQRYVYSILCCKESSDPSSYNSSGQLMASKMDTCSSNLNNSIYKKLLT
Method: CHRF membranes (Jones, Biochim. Biophys. Acta 1992, 1136, 272) are thawed from -70° C., centrifuged at maximum speed for 5 min, washed twice with binding buffer (50 mM HEPES containing 5 mM MgCl2 and 0.1% BSA), and re-suspended in binding buffer ([…]). 100 μl of membranes are added to the 24-Wallac plates and delivered to the Tomtech apparatus. In a typical experiment, 6 μl of samples (from a 125 μg/mL intermediary plate, 20% DMSO) and 44 μl buffer are delivered to the plates (final conc. of compounds is 3.7 μg/mL, 0.6% DMSO). Similarly, 6 μl 20% DMSO and 44 μl buffer are delivered to both column 1 (NSB) and column 12 (TB). 10 μl Ser-pFPhe-Har-Leu-Har-Lys-Tyr-NH2 [SEQ. ID. NO:2] (721-40; 500 μM in deionized water) is added to column 1. 50 μl tritiated 721-40 (specific activity 46 Ci/mmol) is added to all the wells. The plates are mixed well for 20 seconds, incubated for 30 min, and then harvested with 10 mM HEPES/138 mM NaCl using the Skatron harvester. The filters (GF/C Brandel FPXLR 296) are presoaked 3 h in 0.5% polyethylenimine in HEPES/0.1 M N-acetylglucosamine) are set in saran wrap and dried for 3 min in the microwave, and placed in sample bags (Wallac 1450-432). 4.5 mL scintillation fluid (Wallac, Betaplate Scint 1205-440) is added. The bags are sealed, placed in filter cassettes (Wallac 1450-104), and analyzed on the microbeta counter.
as §1

Q: What does the source list for `N=C(N)NCCC[C@H](NC(=O)[C@H](CC1CCCCC1)NC(=O)c1coc([C@H](Cc2ccc(F)cc2)NC(=O)CCN)n1)C(=O)NCc1ccccc1` [Compound 2, 2-[1(S)-β-Alanineamido-2-(4-fluorophenyl)ethyl]oxazole-4-carboxy-cyclohexylalanyl-arginine benzylamide]?
A: IC50 [1]: 7 µM; IC50 (thrombin receptor): 8.2 µM

Q: Which results are given for `CNCC(=O)N[C@@H](Cc1ccc(F)cc1)c1nc(C(=O)N[C@@H](CC2CCCCC2)C(=O)N[C@@H](CCCNC(=N)N)C(=O)NCc2ccccc2)c(C)o1` [Compound 7, 2-[1(S)-Sarcosineamido-2-(4-fluorophenyl)ethyl]-5-methyloxazole-4-carboxy-cyclohexylalanyl-arginine benzylamide]?
A: IC50 [1]: 22 µM; IC50 (thrombin receptor): 7 µM

Q: What does the source list for `CC(=O)N[C@@H](Cc1ccc(F)cc1)c1nc(C(=O)N[C@@H](CC2CCCCC2)C(=O)N[C@@H](CCCNC(=N)N)C(=O)NCc2ccccc2)c(C)o1` [Compound 9, 2-[1(S)-Acetamido-2-(4-fluorophenyl)ethyl]-5-methyloxazole-4-carboxy-cyclohexylalanyl-arginine benzylamide]?
A: IC50 [1]: 11 µM; IC50 (thrombin receptor): 31 µM

Q: Which IC50 [1] does the source give for `Cc1oc([C@H](Cc2ccc(F)cc2)N(C)C)nc1C(=O)N[C@@H](CC1CCCCC1)C(=O)N[C@@H](CCCNC(=N)N)C(=O)NCc1ccccc1` [Compound 10, 2-[1(S)-N,N-Dimethyl-2-(4-fluorophenyl)ethyl]-5-methyloxazole-4-carboxy-cyclohexylalanyl-arginine benzylamide] here?
A: Its IC50 is 17 µM.

Q: `CNCC(=O)N[C@@H](Cc1ccc(F)cc1)c1nc(C(=O)N[C@@H](CC2CCCCC2)C(=O)N[C@@H](CCCN=C(N)N)C(=O)NCc2ccccc2)co1` [Compound 1, 2-[1(S)-Sarcosineamido-2-(4-fluorophenyl)ethyl]oxazole-4-carboxy-cyclohexylalanyl-arginine benzylamide] was tested. Which IC50 [1] did it give?
A: Its IC50 is 10 µM.

Q: What about the IC50 (thrombin receptor) of the same compound?
A: The IC50 was 2 µM.

Q: Which IC50 [1] does the source give for `Cc1oc([C@H](Cc2ccc(F)cc2)NC(=O)[C@@H](N)Cc2cn(Cc3ccccc3)cn2)nc1C(=O)N[C@@H](CC1CCCCC1)C(=O)N[C@@H](CCCNC(=N)N)C(=O)NCc1ccccc1` [Compound 8, 2-[1(S)-N(tau)-Benzyl-histidineamido-2-(4-fluorophenyl)ethyl]-5-methyloxazole-4-carboxy-cyclohexylalanyl-arginine benzylamide] here?
A: Its IC50 is 5 µM.

Q: And the IC50 (thrombin receptor)?
A: Its IC50 is 30 µM.

Q: How did the IC50 [1] turn out when `CC[C@H](C)[C@H](N)C(=O)N[C@@H](Cc1ccc(F)cc1)c1nc(C(=O)N[C@@H](CC2CCCCC2)C(=O)N[C@@H](CCCN=C(N)N)C(=O)N[C@@H](Cc2ccccc2)C(N)=O)cs1` [Compound 5, 2-[1(S)-Isoleucineamido-2-(4-fluorophenyl)ethyl]thiazole-4-carboxy-cyclohexylalanyl-arginyl-phenylalanineamide] (H-I[Phe(4-F)ψ(2,4-Thz)][Cha]RF-NH2) was run?
A: The IC50 was 9 µM.

Q: And the IC50 (thrombin receptor)?
A: Its IC50 is 3.5 µM.

Q: What does the source list for `CNCC(=O)N[C@@H](Cc1ccc(F)cc1)c1nc(C(=O)N[C@@H](CCCCN)C(=O)N[C@@H](CCCNC(=N)N)C(=O)NCCc2ccccc2)cs1` [Compound 6, 2-[1(S)-Sarcosineamido-2-(4-fluorophenyl)ethyl]thiazole-4-carboxy-lysyl-arginine phenethylamide]?
A: IC50 [1]: 4 µM; IC50 (thrombin receptor): 15.5 µM

Q: With `CNCC(=O)N[C@@H](Cc1ccc(F)cc1)c1nc(C(=O)N[C@@H](CC2CCCCC2)C(=O)N[C@@H](CCCN=C(N)N)C(=O)NCCc2ccccc2)cs1` [Compound 3, 2-[1(S)-Sarcosineamido-2-(4-fluorophenyl)ethyl]thiazole-4-carboxy-cyclohexylalanyl-arginine phenethylamide] as the compound, how does the IC50 [1] read?
A: The IC50 was 0.6 µM.

Q: What about the IC50 (thrombin receptor) of the same compound?
A: Its IC50 is 35 µM.

From patent US6017890A, “Azole peptidomimetics as thrombin receptor antagonists” (Ortho-McNeil Pharmaceutical, Inc., priority 1999, dated 2000)
